Patent publication US9345764B2, “Moesin modulators and uses thereof” (SHANGHAI KEXIN BIOTECH CO., LTD., priority 2010, dated 2016)

Legend:
HPMEC cells = assay: Annexin V apoptosis assay (FITC/PI, flow cytometry); type: cell-based, human; details: agent alone, without combination partner
Description: Cell cultures in the presence of anti-moesin antibodies as described in Example 1 were subjected to apoptosis assay as well as surface antigen assay, to assess the antibody's effect on promoting endothelial cell apoptosis and on intercellular expression of moesin (indicating the active form of the protein).
Annexin V assay was used to study apoptosis. Collected cells were washed with PBS, centrifuged, and added sequentially with 70% ethanol, […] (200 mg/l) and PI (20 mg/l). Cells were then stained with Annexin-V FITC/PI kit for double staining of FITC and PI, because viable cells are both FITC and PI negative, while cells that are in early apoptosis are FITC positive but PI negative, and cells that are in late apoptosis or already dead are both FITC and PI positive. Stained cells are analyzed using a flow cytometer for amount of apoptotic cells in the presence of variant testing agents. The percentage of cells in early apoptosis and the percentage of cells in late apoptosis or dead cells after treatment with the test groups and the control group were determined and the results are shown in FIG. 4(a) and FIG. 4(b) respectively.

[1] = tested on: human pulmonary microvascular endothelial cell line (HPMEC); assay: Cell proliferation assay; type: cell-based; details: agent alone; compared with negative control (Group 6, PBS); FIG. 3
Description: Cell proliferation assay were performed using a human pulmonary microvascular endothelial cell line (HPMEC). Cells were plated in each well on a 6-well plate at 10^6 cells/cm^2, and cultured at […] in the presence of various testing and control reagents as described below. After culturing for a determined period of time, cells were collected and labeled for flow cytometry analysis. Proliferation rates at 2 hrs, 24 hrs and 36 hrs were determined by dividing the mean OD570 value from the tested groups with the mean OD570 value from the group having the same number of cells as the test groups at the beginning of the cell culturing.
Tested and control groups are as follows:
2) Antibody against full length moesin protein (anti-Moesin);
3) Antibody against the C-terminal tail domain only (anti-M3);
4) TNF-alpha+anti-Moesin;
6) PBS solution (negative control)

In the case of TNF-alpha, the cell apoptosis (HPMEC cells) is reported as “could induce cell apoptosis but the effect is not as much as it in combination with anti-moesin or anti-M3” and the cell proliferation rates [1] is reported as “reduced cell proliferation rates but not as much as in combination with anti-moesin or anti-M3”.
